Measurements reported in patent US20200030262A1, “THERAPEUTIC SIGMA 1 RECEPTOR AGONISTS FOR TREATING LONG QT SYNDROME TYPE 1, TYPE 2, TYPE 6, TYPE 8 AND RELATED CHANNELOPATHIES” (priority 2017, published 2020).

Columns and labels:
[1] = tested on: Timothy syndrome cardiomyocytes; assay: Analysis of cardiomyocyte contractions, Timothy syndrome cardiomyocytes; format: cell-based, human; settings: for effects on Timothy syndrome cardiomyocytes: contraction irregularity and beating rate; for contraction irregularity / spontaneous beating rate: 5 μM, 2 hours; for contraction irregularity, long-term repeated treatment / spontaneous beating rate, long-term repeated treatment: 10 μM twice a day for seven days; for rhythmic contraction and cell survival: 10 μM, 7 days, vs untreated control group at day 27
Description: […] The contraction analysis was performed as reported previously (Yazawa et al., 2011). The movies were taken before the treatment, and 2 hours after the treatment of each compound on the intact monolayer Timothy syndrome cardiomyocytes. The contraction rate and the irregularity value of each sample before and after treatment were compared using paired Student t-test.

Sigma-1R = Sigma-1R (Homo sapiens, UniProt Q99720); settings: cited from earlier work
[2] = tested on: Timothy syndrome iPSC-derived cardiomyocytes; assay: GCaMP6f-based calcium imaging in Timothy syndrome iPSC-derived cardiomyocytes; format: cell-based, human; settings: 5 uM, 2 hr
Timothy syndrome mice = assay: Mouse electrocardiography, Timothy syndrome mouse model; format: in vivo; settings: in drinking water
Description: A model mouse for Timothy Syndrome was generated by targeting the Rosa26 locus with a G406R mutant in the calcium channel Cacna1c gene (see FIG. 10A). The experimental design for inducing the expression of Timothy syndrome mutant with Dxm treatment (about 28 mg/kg) is shown in FIG. 10B.
(§1) Subcutaneous 4-lead electrocardiograms of isoflurane-anesthetized 12-week old mice were performed using emka ECG and recorded using iox 2.8.0.19. Recordings were conducted a day 4 and 11 after tamoxifen (Sigma-Aldrich, 50 μg/B.W.(g)/day/mouse, i.e., approximately 1 mg/day/mouse) was administrated at day 1-3. Dxm was resolved to drinking water. Total amount of taken dextromethorphan was estimated based on water consumption in each mouse (23-44 mg/kg). To obtain accurate amount of dextromethorphan administration in mice, the concentration of dextromethorphan in the plasma was measured and analyzed at Columbia University Biomarkers Core Laboratory. RR and QT intervals were measured manually using ecgAUTO v2.8.1.27, Excel and Prism 6/7 software.

control littermate mice = assay: Mouse electrocardiography, control littermate mice; format: in vivo; settings: in drinking water
Description: as §1

hERG current IKr [3] = molecular target: T1, hERG current IKr (Homo sapiens, UniProt Q12809); format: cell-based; settings: 5 uM, 2 hr; E-4031-sensitive current
T1 construct: hERG current IKr in Timothy syndrome iPSC-derived cardiomyocytes; endogenous in cells; host or cells: Timothy syndrome iPSC-derived cardiomyocytes
Description: (§2) The following pulse protocol was used: 5-s voltage clamp applied from 10 mV to 50 mV (Δ20 mV, holding at −40 mV, 0.1 Hz, at 25° C.). After recordings, the extracellular solution was switched to one containing 1 μM E-4031 (TOCRIS). E-4031-sensitive current was measured and analyzed as IKr current using Clampfit 10.4 (Axon Instruments).

[4] = tested on: Timothy syndrome cardiomyocytes; assay: Current-clamp action potential recordings in Timothy syndrome cardiomyocytes; format: cell-based, human; settings: 2 hr; for paced action potential duration: paced 0.2 Hz
Description: The Timothy syndrome and control iPSCs were differentiated into cardiomyocytes following a protocol reported previously (Song et al., 2015). The cardiomyocytes were dissociated into single cells for whole-cell patch-clamp recordings at day 31 and used for patch clamping between day 35 and 45. Whole-cell patch-clamp recordings of iPSC-derived cardiomyocytes were conducted using a MultiClap 700B patch-clamp amplifier (Molecular Devices) and an inverted microscope equipped with differential interface optics (Nikon, Ti-U). The glass pipettes were prepared using borosilicate glass (Sutter Instrument, BF150-110-10) using a micropipette puller (Sutter Instrument, Model P-97). Voltage-clamp measurements were conducted using an extracellular solution consisting of 5 mM BaCl2, 160 mM TEA and 10 mM HEPES (pH7.4 at 25° C.) and a pipette solution of 125 mM CsCl, 0.1 mM CaCl2, 10 mM EGTA, 1 mM MgCl2, 4 mM MgATP and 10 mM HEPES (pH 7.4 with CsOH at 25° C.). The protocol for voltage-clamp recordings was that cells were held at −90 mV and then depolarized to −10 mV for 400 ms at a rate of 0.1 Hz for the Ba^2+ current recordings; cells were held at −90 mV, stimulated with a 2-s family of pulses from −90 to +20 for the current-voltage relationship of the Ba^2+ currents. The recordings were conducted under room temperature. […] The recordings were conducted at 37° C. Cardiac action potentials were stimulated (2 ms, 1 nA) in current clamp mode at 37° C. (0.2 or 0.5 Hz). Recorded action potentials were analyzed using Clampfit 10.4 (Axon Instruments). Control recordings were obtained from cardiomyocytes without treatment.
Patch-Clamp Electrophysiology of the cardiomyocytes was done as described in Example 1.

hERG current IKr [5] = format: cell-based, human; settings: 5 uM, 2 hr; E-4031-sensitive current
Description: as §2

[6] = Dxm concentration in the plasma of mice; format: in vivo, mouse; settings: adult normal mice, Dxm in drinking water
Description: as §1

LQTS1 cardiomyocytes = assay: Action potential recordings in LQTS1 cardiomyocytes; format: cell-based, human
Description: (§3) The Timothy syndrome and control iPSCs were differentiated into cardiomyocytes following a protocol reported previously (Song et al., 2015). The cardiomyocytes were dissociated into single cells for whole-cell patch-clamp recordings at day 31 and used for patch clamping between day 35 and 45. Whole-cell patch-clamp recordings of iPSC-derived cardiomyocytes were conducted using a MultiClap 700B patch-clamp amplifier (Molecular Devices) and an inverted microscope equipped with differential interface optics (Nikon, Ti-U). The glass pipettes were prepared using borosilicate glass (Sutter Instrument, BF150-110-10) using a micropipette puller (Sutter Instrument, Model P-97). Voltage-clamp measurements were conducted using an extracellular solution consisting of 5 mM BaCl2, 160 mM TEA and 10 mM HEPES (pH7.4 at 25° C.) and a pipette solution of 125 mM CsCl, 0.1 mM CaCl2, 10 mM EGTA, 1 mM MgCl2, 4 mM MgATP and 10 mM HEPES (pH 7.4 with CsOH at 25° C.). The protocol for voltage-clamp recordings was that cells were held at −90 mV and then depolarized to −10 mV for 400 ms at a rate of 0.1 Hz for the Ba^2+ current recordings; cells were held at −90 mV, stimulated with a 2-s family of pulses from −90 to +20 for the current-voltage relationship of the Ba^2+ currents. The recordings were conducted under room temperature. […] Recorded action potentials were analyzed using Clampfit 10.4 (Axon Instruments). […]

[7] = tested on: isogenic control (Ctrl) iPSC-derived cardiomyocytes; assay: Paced action potential recordings in isogenic control iPSC-derived cardiomyocytes; format: cell-based, human; settings: 5 uM, 2 hr
Description: as §3

[8] = tested on: long QT syndrome type 2 iPSC-derived cardiomyocytes; assay: Action potential recordings in long QT syndrome type 2 iPSC-derived cardiomyocytes; format: cell-based, human; settings: 5 uM, 2 hr
Description: as §3

LQTS6 cardiomyocytes = assay: Paced action potential recordings in LQTS6 cardiomyocytes; format: cell-based, human; settings: 5 μM, 2 hr; paced 0.5 Hz; M54T mutation in MiRP1
control cardiomyocytes [9] = assay: Analysis of cardiomyocyte contractions, healthy control cardiomyocytes; format: cell-based, human; settings: 5 μM, 2 hours
[10] = tested on: Timothy syndrome cardiomyocytes; assay: Calcium imaging (FluoForte) of spontaneous calcium transients in Timothy syndrome cardiomyocytes; format: cell-based, human; settings: 5 μM, 30 min
Description: (§4) The Nikon automatic microscope (Nikon Eclipse TiE with a motorized stage) connected to sCMOS camera (Andor Zyla sCMOS 4.2 MP) together with a stage top incubator (at 37° C., 5% CO2 and 20% O2, controlled by TOKAI HIT Hypoxia gas delivery system) were used for this experiment. Nikon objective lens 40× (Nikon CFI Plan Apo Lambda, NA 0.95) was used for single cell recordings and the cardiomyocyte culture media was used as bath solution. The cells were loaded with FluoForte calcium dye for calcium imaging following the manufacturer's instruction (ENZ-51016, Enzo Life Sciences). […] Thirty minutes after the treatment of Fluvoxamine or PRE-084, a second recording was acquired from the same cell. The calcium transient duration and the calcium transient half (50%) decay time from the recordings before and after treatment were analyzed. Paired student's t-test was used for statistics.

control cardiomyocytes [11] = assay: Calcium imaging of spontaneous calcium transients in control cardiomyocytes; format: cell-based, human; settings: 5 μM, 30 min
Description: as §4

sodium channels = settings: reported (Johannessen et al., 2009); cited from earlier work

Sequence of Sigma-1R (Q99720 whole entry, species assumed): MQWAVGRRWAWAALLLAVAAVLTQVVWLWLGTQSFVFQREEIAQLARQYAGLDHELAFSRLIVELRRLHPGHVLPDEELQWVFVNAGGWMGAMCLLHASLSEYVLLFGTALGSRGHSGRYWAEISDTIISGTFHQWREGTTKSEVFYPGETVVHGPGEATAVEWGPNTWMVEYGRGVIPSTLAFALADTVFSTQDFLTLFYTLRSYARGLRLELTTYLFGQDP
T1 sequence (Q12809 whole entry): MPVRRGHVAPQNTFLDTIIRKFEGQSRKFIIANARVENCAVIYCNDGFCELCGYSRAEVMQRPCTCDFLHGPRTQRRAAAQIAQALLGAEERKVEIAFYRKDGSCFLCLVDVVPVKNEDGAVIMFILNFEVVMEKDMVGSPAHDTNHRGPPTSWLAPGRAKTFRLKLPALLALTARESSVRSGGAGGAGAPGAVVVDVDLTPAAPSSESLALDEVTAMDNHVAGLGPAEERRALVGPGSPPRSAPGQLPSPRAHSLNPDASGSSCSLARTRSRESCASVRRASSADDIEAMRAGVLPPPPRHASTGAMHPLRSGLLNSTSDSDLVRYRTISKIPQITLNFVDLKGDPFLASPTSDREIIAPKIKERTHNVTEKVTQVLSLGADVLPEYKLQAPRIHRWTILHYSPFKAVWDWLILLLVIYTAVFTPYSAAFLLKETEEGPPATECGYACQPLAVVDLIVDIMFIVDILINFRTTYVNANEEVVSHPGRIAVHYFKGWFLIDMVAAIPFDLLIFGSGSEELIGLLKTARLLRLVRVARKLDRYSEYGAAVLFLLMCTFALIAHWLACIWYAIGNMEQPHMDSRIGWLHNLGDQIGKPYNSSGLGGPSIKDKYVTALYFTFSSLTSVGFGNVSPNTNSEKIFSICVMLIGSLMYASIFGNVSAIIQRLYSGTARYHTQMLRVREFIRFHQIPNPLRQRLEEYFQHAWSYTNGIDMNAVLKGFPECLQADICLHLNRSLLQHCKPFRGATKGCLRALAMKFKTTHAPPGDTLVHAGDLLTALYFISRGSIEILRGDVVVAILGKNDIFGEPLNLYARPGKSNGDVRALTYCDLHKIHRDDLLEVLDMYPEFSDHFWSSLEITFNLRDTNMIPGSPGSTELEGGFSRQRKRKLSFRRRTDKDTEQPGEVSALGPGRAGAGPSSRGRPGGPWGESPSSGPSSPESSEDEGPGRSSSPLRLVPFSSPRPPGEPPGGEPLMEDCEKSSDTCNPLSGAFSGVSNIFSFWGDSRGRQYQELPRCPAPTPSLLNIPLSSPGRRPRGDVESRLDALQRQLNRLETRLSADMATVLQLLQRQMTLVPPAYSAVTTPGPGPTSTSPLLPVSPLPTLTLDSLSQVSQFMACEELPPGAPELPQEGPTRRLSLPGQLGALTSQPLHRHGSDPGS

## Fc1ccc([C@@H]2CCNC[C@H]2COc2ccc3c(c2)OCO3)cc1 [paroxetine]
[1]
  effects on Timothy syndrome cardiomyocytes: no beneficial effects
Sigma-1R
  affinity for sigma 1 receptor: low affinity

## CCCN(CCC)CCc1ccc(OC)c(OCCc2ccccc2)c1 [NE-100]
[1]; Fluvoxamine 5 μM + NE-100 5 μM, 2 hr
  beneficial effects of Fluvoxamine under co-treatment with NE-100: blocked

## COc1ccc(CNc2nc(NCc3ccc(OC)cc3)c3ncn(C4CCCCC4)c3n2)cc1 [Myoseverin-B]
[1]
  effects on Timothy syndrome cardiomyocytes: positive effects

## CC(C)CC(=O)Nc1[nH]nc2c1CN(C(=O)C1CCN(C)CC1)C2(C)C [PHA-793887]
[1]
  effects on Timothy syndrome cardiomyocytes: positive effects

## COc1ccc(CCN2CCN(CCCc3ccccc3)CC2)cc1OC [SA4503]
[1]; 0.1 μM
  beating rate or contraction irregularity: no obvious improvement
[1]; dose between 1 μM to 5 μM
  contractions of Timothy syndrome cardiomyocytes: stopped the contractions

## COc1ccc2c(c1)[C@]13CCCC[C@@H]1[C@H](C2)N(C)CC3 [dextromethorphan]
[2]
  cardiac transient duration: significantly shortened
  cardiac transient frequency: significantly increased
Timothy syndrome mice; approximately 28 mg/kg, day 4
  QT intervals in Timothy syndrome mice: significantly shortened
Timothy syndrome mice; day 11
  QT intervals in Timothy syndrome mice: significantly shortened
Control littermate mice
  QT intervals in control littermate mice: no significant effect
hERG current IKr [3]
  IKr current in Timothy syndrome iPSC-derived cardiomyocytes: significantly increased
[4]; 5 uM, paced
  action potential duration (APD90) in Timothy syndrome iPSC-derived cardiomyocytes: significantly shortened
hERG current IKr [5]
  IKr current in long QT syndrome type 2 iPSC-derived cardiomyocytes: significantly increased
[6]
  plasma concentration of Dxm: 5 to 10 ng/mL
LQTS1 cardiomyocytes; treated vs untreated
  action potential duration in long QT syndrome type 1 iPSC-derived cardiomyocytes: significantly shortened
[7]
  action potential duration (APD90) in isogenic control cells: not changed
[8]
  action potential duration in long QT syndrome type 2 iPSC-derived cardiomyocytes: significantly shortened
Sigma-1R; read-out: Ki (Sigma-1R), known as Sigma-1R agonist
  Ki: 150 nM

## COCCCC/C(=N\OCCN)c1ccc(C(F)(F)F)cc1 [Fluvoxamine]
[4]; 5 μM
  paced action potential duration: reduced
LQTS6 cardiomyocytes
  prolonged paced action potentials (APD90) in LQTS6 cardiomyocytes: significantly reduced
Control cardiomyocytes [9]
  contraction rhythmicity of control cardiomyocytes: did not significantly affect
  spontaneous beating rate of control cardiomyocytes: significantly enhanced
LQTS1 cardiomyocytes; 5 μM, 2 hr, paced 0.5 Hz, G269S mutation in KCNQ1
  prolonged paced action potentials (APD90) in LQTS1 cardiomyocytes: significantly reduced
[1]
  contraction irregularity: significantly decreased
  spontaneous beating rate: increased
  contraction irregularity, long-term repeated treatment: reduced
  spontaneous beating rate, long-term repeated treatment: significantly enhanced
  rhythmic contraction and cell survival: enhanced
[10]
  abnormal spontaneous calcium transients: alleviated
  spontaneous calcium transient duration: significantly reduced
  spontaneous calcium transient half decay time: significantly reduced
Control cardiomyocytes [11]
  calcium transient duration in control cardiomyocytes: did not significantly affect
  calcium transient half decay time in control cardiomyocytes: did not significantly affect
  normal calcium transients in control cardiomyocytes: did not significantly affect

## O=C(OCCN1CCOCC1)C1(c2ccccc2)CCCCC1 [PRE-084]
Sodium channels
  effects on sodium channels: little effects
[4]; 5 μM
  abnormal spontaneous action potentials: rescued
  paced action potential duration: rescued
Control cardiomyocytes [9]
  contraction rhythmicity of control cardiomyocytes: did not significantly affect
  spontaneous beating rate of control cardiomyocytes: significantly enhanced
[1]
  contraction irregularity: decreased
  spontaneous beating rate: significantly increased
  contraction irregularity, long-term repeated treatment: reduced
  spontaneous beating rate, long-term repeated treatment: significantly enhanced
  rhythmic contraction and cell survival: enhanced
[10]
  abnormal spontaneous calcium transients: alleviated
  spontaneous calcium transient duration: significantly reduced
  spontaneous calcium transient half decay time: significantly reduced
Control cardiomyocytes [11]
  calcium transient duration in control cardiomyocytes: did not significantly affect
  calcium transient half decay time in control cardiomyocytes: did not significantly affect
  normal calcium transients in control cardiomyocytes: did not significantly affect
